l = locked nucleic acid (LNA); d = 2'-deoxy (DNA)
Tests used:
[1] = Oral capsule PK study of an oligo against Factor VII, with or without GalNAc, using 5-CNAC as carrier; type: in vivo, Cynomolgus monkey
Experimental: (§1) Study outline: Dry blended capsules (20 mg Factor FVII with or without GalNac/200 mg 5-CNAC) were manufactured from uniform dry blended formulations, that were filled into enterically coated Size 0, hard shell gelatin capsules. A total of 10 Cynomolgus monkeys (5 males and 5 females) were each administered a single capsule of either oligo by oral gavage, and blood samples for PK analysis were drawn pre-dose and 0.5, 1.5, 3 and 5 hours post-dosing.

PCSK9 = PCSK9 change from baseline after daily oral CIVI 008/SNAC capsules for 42 days; type: in vivo, Cynomolgus monkey; settings: control animals, 20 mg CIVI 008 capsules without SNAC, daily x 42
Text: (§2) Clinical chemistry, PCSK9 and lipids: urea nitrogen, creatinine, total protein, albumin, globulin, albumin:globulin ratio, total bilirubin, aspartate aminotransferase, alanine aminotransferase, alkaline phosphatase, gamma glutamyltransferase, creatine kinase, calcium, inorganic phosphorus, sodium, potassium, chloride, high density lipoproteins, low density lipoprotein, very low density lipoprotein, total cholesterol, triglycerides.

plasma LDL-cholesterol = assay: Plasma LDL cholesterol change from baseline after daily oral CIVI 008/SNAC capsules; type: in vivo, Cynomolgus monkey
Text: as §2

[2] = Repeat-dose toxicity of CIVI 008 formulated with SNAC (GLP); type: in vivo, Cynomolgus monkey
[3] = Oral capsule toxicokinetic study of CIVI 008 using 5-CNAC as carrier; type: in vivo, Cynomolgus monkey; settings: for AUC with increasing dose of CIVI 008 / Cmax with increasing dose of CIVI 008: constant dose of 5-CNAC
Text: The objectives of this study were to determine the ability of 5-CNAC [Disodium N-(5-Chorosalicyloyl)-8-aminocaprylate] to facilitate oral uptake of CIVI 008 and to determine the manufacture method and dosing paradigm of CIVI 008/5-CNAC capsules that provide the most efficient oral uptake of CIVI 008 when administered to Cynomolgus monkeys of Mauritian origin.
Study outline: A total of 10 Cynomolgus monkeys (5 males and 5 females) were each dosed with 2 group A capsules on Monday and Wednesday in week 1, followed by 4 days of dosing holiday. This Monday and Wednesday dosing scheme was continued in weeks 2, 3, 5, 6, 7, 8, 13, 14, 15 and 17 using 2 group B-capsules per dose occasion in week 2, and 1 capsule of groups C to K per dose occasion in their respective weeks. During the dosing period, blood samples for PK analysis were drawn pre-dose and 0.5, 1.5, 3 and 5 hours post-dosing on Mondays and Wednesdays. Samples for clinical chemistry and hematology (see example 1) were taken pre-study and end of study.

[4] = Half-life of CIVI 008 in the liver; type: in vivo, non-human primates; settings: expected after 7-weeks of once daily dosing
[5] = cynomolgus monkey, in vivo, po
Experimental: (§3) The objectives of this study were to evaluate the toxicity and reversibility of CIVI 008 and to determine the pharmacology, plasma exposure and target organ accumulation of CIVI 008 when administered daily by oral capsule to the Cynomolgus monkey of Mauritian origin for 42 days compared to administration by the subcutaneous route administered once every two weeks (investigated previously).
(§4) Oral Capsule: Capsules containing CIVI 008 (10 mg)/SNAC (100 mg) were manufactured as uniform dry blend formulations, that were filled into Size 4 hard shell gelatin capsules that were enterically coated post fill.

[6] = cynomolgus monkey, in vivo
Experimental: as §3, §4

[7] = Oral capsule PK study of CIVI 008 without GalNAc using 5-CNAC as carrier; type: in vivo, Cynomolgus monkey; settings: single oral capsule 20 mg/200 mg 5-CNAC
Text: As shown in previous Examples 1 and 3, orally dosed CIVI 008 with GalNAc is rapidly internalized in the liver by the GalNAc receptor, with very little CIVI 008 escaping into general circulation at doses below that required for saturation of the GalNAc receptor. In many instances the objective is to target genes that are expressed in organs other than the liver. […] The objective of this study was to determine the systemic exposure of orally administered CIVI 008 without the GalNAc conjugate, and to compare the exposure to that of a similar oral dose of CIVI 008 with GalNAc.
as §1, with “CIVI 008” for “Factor FVII with or”, “GalNAc/200” for “GalNac/200”, “capsule” for “capsule of either oligo”

plasma LDL = assay: Plasma LDL after once-daily oral CIVI 008/5-CNAC capsule for 49 days; type: in vivo, Cynomolgus monkey; settings: 5-CNAC vs SNAC
Experimental: The objectives of this study were to determine the ability of 5-CNAC [disodium N-(5-chorosalicyloyl)-8-aminocaprylate] to reduce plasma PCSK9 when dosed once daily for 7 weeks. The half-life of CIVI 008 in the liver of non-human primates is between 2 to 3 weeks, so after 7-weeks of dosing liver concentrations are expected to reach >80% of its steady state level.
Study outline: Dry blended capsules (20 mg CIVI 008/200 mg 5-CNAC) were manufactured from uniform dry blended formulations, that were filled into enterically coated Size 0, hard shell gelatin capsules. A total of 10 Cynomolgus monkeys (5 males and 5 females) were each administered a single capsule by oral gavage once daily for 49 days. […] During the dosing period, blood samples for PK analysis were drawn pre-dose and 0.5, 1.5, 3 and 5 hours post-dosing at study start and at day 49. Blood samples for PCSK9 and lipid analysis were drawn on week −2 and −1 pre-study, pre-dose on Day 1 and weekly thereafter for the duration of the study. Samples for clinical chemistry, coagulation and hematology were taken on week −2 and −1 pre-study, and on Day 22 and 49.

[8] = single oral capsule 20 mg/200 mg 5-CNAC
[9] = CIVI 008 with 5-CNAC capsule, stated as specific aspect
[10] = dose range 5 mg to 30 mg, 200 mg 5-CNAC

GalNac conjugated Factor FVII oligo: 13 nt LNA gapmer antisense oligo against Factor VII, SEQ ID NO: 158, with GalNAc moiety (antisense GCACCACGGTCCA; sugars from the 5' end l2 d8 l3, all phosphorothioate, methylation of C not given here; GalNAc conjugate attached, further chemistry not fully specified)
species found in plasma samples ([1]; 0.5 hr samples): parent compound | species found in plasma samples ([1]; 1.5 hr samples): mixture of parent compound and loss of carbohydrate moiety | species found in plasma samples ([1]; 3 hr samples): progressive loss of carbohydrate moiety | species found in plasma samples ([1]; 5 hr samples): progressive loss of carbohydrate moiety

unconjugated Factor FVII oligo: 13 nt LNA gapmer antisense oligo against Factor VII, SEQ ID NO: 158, without GalNAc moiety (antisense GCACCACGGTCCA; sugars from the 5' end l2 d8 l3, all phosphorothioate, methylation of C not given here)
AUC relative to GalNac conjugated Factor FVII oligo [1, 8]: ~3.5 fold | Cmax relative to GalNac conjugated Factor FVII oligo [1, 8]: ~3.5 fold

cepadacursen (AATGCTACAAAACCCA; LNA gapmer with GalNAc conjugate, pattern not given here) [CIVI 008]
mean PCSK9 reductions (PCSK9): comparatively small | LDL-c reductions (plasma LDL-cholesterol; control animals, 20 mg CIVI 008 capsules without SNAC, throughout the study): fluctuated around baseline values | LDL levels at the end of recovery (plasma LDL-cholesterol; end of recovery): had yet to fully return to baseline | LDL levels at the end of dosing, persistence (plasma LDL-cholesterol; recovery period after 42 days oral dosing with SNAC): maintained for two weeks post-dosing | histopathological changes in intestinal tract (duodenum, jejunum, ileum and colon) ([2]; QD oral dosing for 42 days): no local histopathological changes | macroscopic or microscopic findings suggesting local or systemic effects ([2]; end of dosing and end of recovery): no macroscopic or microscopic findings | organ weight changes ([2]; following oral capsule administration): no organ weight changes | AUC0-5 with 5-CNAC carrier compared to similar dose with SNAC carrier ([3]; 5-CNAC vs SNAC (Example 1)): increase | Cmax with 5-CNAC carrier compared to similar dose with SNAC carrier ([3]; 5-CNAC vs SNAC (Example 1)): increase | increase of the mean AUC0-50 with respect to corresponding composition comprising SNAC instead of 5-CNAC [3, 9]: about 80% | increase of the mean Cmax with respect to corresponding composition comprising SNAC instead of 5-CNAC [3, 9]: about 110% | AUC with increasing dose of CIVI 008 ([3]; dose above 25 mg): more than dose proportional increases | Cmax with increasing dose of CIVI 008 ([3]; dose above 25 mg): more than dose proportional increases | AUC with increasing dose of CIVI 008 ([3]; doses up to 25 mg): dose proportionally up to 25 mg | Cmax with increasing dose of CIVI 008 ([3]; doses up to 25 mg): dose proportionally up to 25 mg | AUC profiles, freeze-dried vs dry blended capsules [3, 10]: very similar | Cmax profiles, freeze-dried vs dry blended capsules [3, 10]: very similar | liver concentrations as share of steady state level [4]: > 80% | form of CIVI 008 detected in plasma (HPLC peak) [5]: mixture of parent compound and metabolites | form of CIVI 008 detected in plasma (HPLC retention time) [5]: absorbed intact from the gut | mean Tmax [5]: ≤ 30 min | liver concentrations, difference between the SQ and PO arms [6]: approximately one

CIVI 008 without GalNAc: Unconjugated form of CIVI 008, 16 nt LNA gapmer, SEQ ID NO: 134, without GalNAc moiety (AATGCTACAAAACCCA; LNA gapmer stated, pattern not given here)
AUC relative to similar dose of CIVI 008 with GalNac [7]: ~8 fold | Cmax relative to similar dose of CIVI 008 with GalNac [7]: ~8 fold | concentrations in the plasma [7]: measurable concentrations | plasma profile compared to CIVI 008 with GalNAc [7]: very similar

O=C(O)CCCCCCCNC(=O)c1cc(Cl)ccc1O [5-CNAC, N-(5-chlorosalicyloyl)-8-aminocaprylic acid]
efficiency of carrier in facilitating oral uptake of CIVI 008 ([3]; 5-CNAC vs SNAC): more efficient of the two carriers | efficiency in facilitating oral uptake of CIVI 008 (plasma LDL): substantially more efficient than SNAC
